According to PMC9785397, “Exploiting Conserved Quorum Sensing Signals in Streptococcus mutans and Streptococcus pneumoniae” (Microorganisms, 2022):
≈ marks a conversion by molar mass, not a printed value.

Key:
vicK gene = test: qRT-PCR, vicK gene expression in biofilm; type: cell-based, Streptococcus mutans; details: CSP1 20 μM vs vehicle, 16 h, qPCR
Method: S. mutans was cultured in BHI supplemented with peptides or the vehicle. Cultures were centrifuged, and total RNA was isolated and purified from the bacterial pellets using the GRS Total RNA Kit—Bacteria (GK16.0100; GRISP Research Solution, Porto, Portugal), following the manufacturer’s instructions. Purified RNA was subjected to DNase I treatment to remove contaminating DNA. The RNA yield and purity were assessed by measuring the absorbance, and only samples with a ratio of 260/280 nm in the 1.8–2 range were used. cDNA was generated using the cDNA RT kit with an RNAse inhibitor (Applied Biosystems; Monza, Milan). Quantitative PCR (qRT-PCR) was performed using SYBR green mixture (iScript One Step RT-PCR kit; Bio-Rad, Segrate, Milan) to determine the transcript levels of genes using the oligonucleotides listed in Table 3. The gyrA gene served as the housekeeping gene.

S. mutans = test: microbe, parasite or virus in culture; type: cell-based, Streptococcus mutans; details: peptides 0–50 μM, 16 h, 37 °C, microaerophilic, A620 nm, three separate experiments
Source text: Streptococcus mutans Clarke (strain designation NCTC 10449), Pseudomonas aeruginosa (Schroeter) Migula (strain designation PAO1), Fusobacterium nucleatum, subspecies nucleatum (strain VPI 4355), and Porphyromonas gingivalis (strain 2561) were purchased from ATCC (LGC Standards Srl, Milan, Italy). Streptococcus mitis, Streptococcus oralis, and Streptococcus sanguinis were obtained from clinical isolates and characterized by morphological, biochemical, and molecular typing. S. mutans, S. mitis, S. oralis, and S. sanguinis were maintained in Brain Heart Infusion (BHI) broth or agar under microaerophilic conditions. P. aeruginosa was maintained in trypticase soy (TS) agar or broth. F. nucleatum was maintained in TS agar or broth with defibrinated sheep blood under anaerobic conditions. P. gingivalis was maintained in ATCC Medium 2722 supplemented with TS broth or agar under anaerobic conditions. Before the experiments, bacterial cultures were inoculated in fresh media (dilution 1:100) and grown for 16 h at 37 °C.
The antimicrobial activities of the tested peptides were assessed through the determination of the minimum inhibitory concentration (MIC) standardized by the Clinical and Laboratory Standards Institute. Bacterial inocula were diluted in 10 mL of MHB […]. The concentration of the bacteria was adjusted to 0.5 McFarland standard, and the bacteria were dispensed in 96-well microtiter plates (final bacterial concentration: 1 × 10^4 CFU/well). Peptides were dissolved in sterile water (stock concentration: 2 mM) and added at final concentrations ranging from 0 to 50 µM. Plates were incubated at 37 °C for 16 h. At the end of incubation, bacterial growth was recorded using a microplate reader (Varioskan Lux Reader; Thermo Fisher Scientific, Milan, Italy) by quantifying the adsorption at 620 nm. Cultures were then opportunely diluted and seeded on agar plates. Bacterial cultures inoculated with the highest final concentration of the vehicle (sterile water) or chlorhexidine hydrochloride salt (CHX, concentration range: 0.05 to 500 μg/mL; Merck, Milan, Italy) were included as controls in each test. Experiments were performed in triplicate.

CC[C@H](C)[C@H](NC(=O)[C@H](Cc1ccccc1)NC(=O)[C@H](CC(=O)O)NC(=O)[C@H](CCCNC(=N)N)NC(=O)[C@H](Cc1ccccc1)NC(=O)[C@H](Cc1ccccc1)NC(=O)[C@H](CCCCN)NC(=O)[C@H](CO)NC(=O)[C@H](CC(C)C)NC(=O)[C@H](CCCNC(=N)N)NC(=O)[C@H](CCSC)NC(=O)[C@@H](N)CCC(=O)O)C(=O)N[C@@H](CC(C)C)C(=O)N[C@@H](CCC(N)=O)C(=O)N[C@@H](CCCNC(=N)N)C(=O)N[C@@H](CCCCN)C(=O)N[C@@H](CCCCN)C(=O)O [CSP1]
Expression of vicK in S. mutans biofilm (vicK gene): significantly increased | Minimum inhibitory concentration (MIC), S. mutans (S. mutans): 30 µM (≈ 67.3 µg/mL)
